Results published in patent US7829572B2 (Pfizer Inc, priority 2006, dated 2010).

These molecules were tested against T1, calcium receptor (CasR) (Homo sapiens, UniProt P41180) (assay: FLIPR Assay for Evaluating the Potency and Selectivity of Test Compounds). Conditions: HEK 293 cells expressing CasR; 30 minutes pre-incubation; stimulation by 1.7 mM Ca2+; read 42 seconds after stimulation.
T1 construct: expressed in transfected cells; host or cells: HEK 293
T1 sequence (P41180 20-1078): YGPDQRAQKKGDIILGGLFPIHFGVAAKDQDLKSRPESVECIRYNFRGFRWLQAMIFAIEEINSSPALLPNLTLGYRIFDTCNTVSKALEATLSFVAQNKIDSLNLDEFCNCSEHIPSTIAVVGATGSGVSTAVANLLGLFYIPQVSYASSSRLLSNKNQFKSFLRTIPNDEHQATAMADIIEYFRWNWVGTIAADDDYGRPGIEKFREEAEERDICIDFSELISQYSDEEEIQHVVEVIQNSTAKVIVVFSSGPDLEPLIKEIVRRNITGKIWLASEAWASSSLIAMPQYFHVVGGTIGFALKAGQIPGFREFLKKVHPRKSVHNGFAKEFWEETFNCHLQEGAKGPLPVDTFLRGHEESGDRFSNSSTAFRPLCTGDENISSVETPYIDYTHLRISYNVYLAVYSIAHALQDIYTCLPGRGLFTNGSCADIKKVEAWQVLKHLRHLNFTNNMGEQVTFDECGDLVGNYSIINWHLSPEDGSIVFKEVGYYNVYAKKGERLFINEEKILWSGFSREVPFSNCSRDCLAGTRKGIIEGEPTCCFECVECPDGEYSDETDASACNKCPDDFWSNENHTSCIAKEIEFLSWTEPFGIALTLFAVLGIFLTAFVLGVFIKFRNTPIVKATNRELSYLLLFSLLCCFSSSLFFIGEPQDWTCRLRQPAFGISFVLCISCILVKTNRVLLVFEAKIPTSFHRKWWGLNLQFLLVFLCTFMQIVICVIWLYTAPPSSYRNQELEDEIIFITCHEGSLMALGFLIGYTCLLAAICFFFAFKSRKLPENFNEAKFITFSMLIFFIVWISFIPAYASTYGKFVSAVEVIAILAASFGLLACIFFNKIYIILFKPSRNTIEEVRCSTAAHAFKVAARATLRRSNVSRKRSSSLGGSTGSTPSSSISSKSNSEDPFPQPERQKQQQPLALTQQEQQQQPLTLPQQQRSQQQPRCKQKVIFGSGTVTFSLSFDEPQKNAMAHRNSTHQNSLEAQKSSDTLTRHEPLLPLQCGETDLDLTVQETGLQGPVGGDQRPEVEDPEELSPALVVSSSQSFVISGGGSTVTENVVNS
Format: cell-based
Text: FLIPR Assay for Evaluating the Potency and Selectivity of Test Compounds
Human kidney cell (HEK 293) expressing the calcium receptor (CasR) are used to detect antagonists of the receptor using Fluorometric imaging plate reader (FLIPR, Molecular Devices, Sunnyvale Calif.). Receptor activation by extracellular calcium results in the release of calcium from intracellular stores into the cytosol. A fluorescent indicator (Fluo-4) is internalized by the cells from growth media and interacts with calcium released into the cytosol to provide a means of quantifying intracellular Ca^2+ levels and receptor agonism/antagonism. Fluorescence intensity is detected by the FLIPR CCD camera and traced as a function of time. Potential antagonists are identified by their ability to decrease this fluorescent response.
Prior to the addition of test compound cells are washed with a 10 mM HEPES buffer solution. The test compound, for example the compound of Example 1, is added at various doses (from 1 µM to 3 nM) and pre-incubated with cells for 30 minutes followed by stimulation of the CasR by the addition of 1.7 mM Ca^2+. IC50 values are based on the ability of the cells to inhibit the Ca^2+ induced increase in intracellular Ca^2+. Fluorescence signal is read 42 seconds after the stimulation of the CasR by the addition of 1.7 mM Ca^2+.
The following table provides FLIPR IC50 data for the specified Examples. The IC50s are reported as micromolar concentration with n being the number of times the particular compound was assayed.

SMILES | IC50 [nM]
CN(C)c1ccc(-c2nccc3nc(-c4ccccc4O)n(CCc4ccccc4)c(=O)c23)cn1 [Example 27, 5-(6-Dimethylamino-pyridin-3-yl)-2-(2-hydroxy-phenyl)-3-phenethyl-3H-pyrido[4,3-d]pyrimidin-4-one] | 2260
CC(C)CCn1c(-c2ncccc2O)nc2ccnc(C(F)(F)F)c2c1=O [Example 66, 2-(3-hydroxypyridin-2-yl)-3-isopentyl-5-(trifluoromethyl)pyrido[4,3-d]pyrimidin-4(3H)-one] | 36200
O=c1c2c(C(F)(F)F)nccc2nc(-c2ncccc2C(F)(F)F)n1CCc1ccccc1 [Example 76, 3-Phenethyl-5-trifluoromethyl-2-(3-trifluoromethyl-pyridin-2-yl)-3H-pyrido[4,3-d]pyrimidin-4-one] | 6300
O=c1c2c(C(F)(F)F)nccc2nc(-c2ncccc2O)n1CCc1ccccc1 [Example 3, 2-(3-Hydroxy-pyridin-2-yl)-3-phenethyl-5-trifluoromethyl-3H-pyrido[4,3-d]pyrimidin-4-one] | 390
COc1cccc(F)c1CCn1c(-c2ncccc2O)nc2ccnc(C(F)(F)F)c2c1=O [Example 42, 3-(2-fluoro-6-methoxyphenethyl)-2-(3-hydroxypyridin-2-yl)-5-(trifluoromethyl)pyrido[4,3-d]pyrimidin-4(3H)-one] | 1120
O=c1c2c(C(F)(F)F)nccc2nc(-c2ncccc2O)n1CCC1CCOCC1 [Example 68, 2-(3-hydroxypyridin-2-yl)-3-(2-(tetrahydro-2H-pyran-4-yl)ethyl)-5-(trifluoromethyl)pyrido[4,3-d]pyrimidin-4(3H)-one] | > 1000
COc1nccc2nc(-c3ccccc3O)n(CCc3ccccc3)c(=O)c12 [Example 30, 2-(2-Hydroxy-phenyl)-5-methoxy-3-phenethyl-3H-pyrido[4,3-d]pyrimidin-4-one] | 1170
O=c1c2c(N3CCCC3)nccc2nc(-c2ccccc2O)n1CCc1ccccc1 [Example 18, 2-(2-Hydroxy-phenyl)-3-phenethyl-5-pyrrolidin-1-yl-3H-pyrido[4,3-d]pyrimidin-4-one] | 12300
CC1(COc2nccc3nc(-c4ccccc4O)n(CCc4ccccc4)c(=O)c23)CC1 [Example 31, 2-(2-Hydroxy-phenyl)-5-(1-methyl-cyclopropylmethoxy)-3-phenethyl-3H-pyrido[4,3-d]pyrimidin-4-one] | 1930
Cc1nccc2nc(-c3ccccc3O)n(CCc3ccccc3)c(=O)c12 [Example 26, 2-(2-Hydroxy-phenyl)-5-methyl-3-phenethyl-3H-pyrido[4,3-d]pyrimidi-4-one] | 2990
COc1ccccc1CCn1c(-c2cscn2)nc2ccnc(C(F)(F)F)c2c1=O [Example 60, 3-(2-methoxyphenethyl)-2-(thiazol-4-yl)-5-(trifluoromethyl)pyrido[4,3-d]pyrimidin-4(3H)-one] | 23200
O=c1c2c(OCC(F)(F)F)nccc2nc(-c2ccccc2O)n1CCc1ccccc1 [Example 36, 2-(2-Hydroxy-phenyl)-3-phenethyl-5-(2,2,2-trifluoro-ethoxy)-3H-pyrido[4,3-d]pyrimidin-4-one] | 600
O=c1c2c(C(F)(F)F)nccc2nc(-c2ncccc2O)n1CCC1CCCC1 [Example 46, 3-(2-cyclopentylethyl)-2-(3-hydroxypyridin-2-yl)-5-(trifluoromethyl)pyrido[4,3-d]pyrimidin-4(3H)-one] | 290
Nc1cccnc1-c1nc2ccnc(C(F)(F)F)c2c(=O)n1CCc1ccccc1 [Example 63, 2-(3-aminopyridin-2-yl)-3-phenethyl-5-(trifluoromethyl)pyrido[4,3-d]pyrimidin-4(3H)-one] | 770
O=c1c2c(OC3CCC3)nccc2nc(-c2ccccc2O)n1CCc1ccccc1 [Example 33, 5-Cyclobutyloxy-2-(2-hydroxy-phenyl)-3-phenethyl-3H-pyrido[4,3-d]pyrimidin-4-one] | 520
O=c1c2c(-c3ccccc3)nccc2nc(-c2ccccc2O)n1CCc1ccccc1 [Example 24, 2-(2-Hydroxy-phenyl)-3-phenethyl-5-phenyl-3H-pyrido[4,3-d]pyrimidin-4-one] | 2600
O=c1c2c(C(F)(F)F)nccc2nc(-c2cscn2)n1CCC1CCCCC1 [Example 61, 3-(2-cyclohexylethyl)-2-(thiazol-4-yl)-5-(trifluoromethyl)pyrido[4,3-d]pyrimidin-4(3H)-one] | 500

These reach a lower IC50. Values come first.

IC50 [nM] | SMILES
110 | COc1ccccc1CCn1c(-c2ncccc2O)nc2ccnc(C(F)(F)F)c2c1=O [Example 39, 3-(2-methoxyphenethyl)-2-(3-hydroxypyridin-2-yl)-5-(trifluoromethyl)pyrido[4,3-d]pyrimidin-4(3H)-one]
8 | C[C@H](Cc1ccc(F)c(F)c1)n1c(-c2ncccc2O)nc2ccnc(C(F)(F)F)c2c1=O [Example 37a, (R)-3-(1-(3,4-difluorophenyl)propan-2-yl)-2-(3-hydroxypyridin-2-yl) 5-(trifluoromethyl)pyrido[4,3-d]pyrimidin-4(3H)-one]
250 | COc1ccc(F)cc1CCn1c(-c2ncccc2O)nc2ccnc(C(F)(F)F)c2c1=O [Example 41, 3-(5-fluoro-2-methoxyphenethyl)-2-(3-hydroxypyridin-2-yl)-5-(trifluoromethyl)pyrido[4,3-d]pyrimidin-4(3H)-one]
250 | O=c1c2c(C(F)(F)F)nccc2nc(-c2ncccc2O)n1CCc1ccccc1F [Example 12, 3-[2-(2-Fluoro-phenyl)-ethyl-]2-(3-hydroxy-pyridin-2-yl)-5-trifluoromethyl-3H-pyrido[4,3-d]pyrimidin-4-one]
50 | CC(Cc1ccccc1F)n1c(-c2ncccc2O)nc2ccnc(C(F)(F)F)c2c1=O (single isomer, unassigned) [Example 6a, 2-(3-Hydroxy-pyridin-2-yl)-3-(1-methyl-2-(2-fluorophenyl)ethyl)-5-trifluoromethyl-3H-pyrido[4,3-d]pyrimidin-4-one]
130 | O=c1c2c(C(F)(F)F)nccc2nc(-c2ccccc2O)n1CCc1ccccc1F [Example 7]
160 | C[C@H](CC1CCCCC1)n1c(-c2ncccc2O)nc2ccnc(C(F)(F)F)c2c1=O [Example 48a, (R)-3-(1-cyclohexylpropan-2-yl)-2-(3-hydroxypyridin-2-yl)-5-(trifluoromethyl)pyrido[4,3-d]pyrimidin-4(3H)-one]
110 | C[C@H](Cc1ccccc1)n1c(-c2ncc[nH]2)nc2ccnc(C(F)(F)F)c2c1=O [Example 51, (R)-2-(1H-imidazol-2-yl)-3-(1-phenylpropan-2-yl)-5-(trifluoromethyl)pyrido[4,3-d]pyrimidin-4(3H)-one]
200 | C[C@H](Cc1ccccc1)n1c(-c2ncccc2NC(=O)C(F)(F)F)nc2ccnc(C(F)(F)F)c2c1=O [Example 73, (R)-2,2,2-trifluoro-N-(2-(4-oxo-3-(1-phenylpropan-2-yl)-5-(trifluoromethyl)-3,4-dihydropyrido[4,3-d]pyrimidin-2-VI)pyridin-3-VI)acetamide]
60 | O=c1c2c(C(F)(F)F)nccc2nc(-c2ncccc2O)n1CCC1CCCCC1 [Example 47, 3-(2-cyclohexylethyl)-2-(3-hydroxypyridin-2-yl)-5-(trifluoromethyl)pyrido[4,3-d]pyrimidin-4(3H)-one]
60 | C[C@H](Cc1ccccc1)n1c(-c2ccccc2O)nc2ccnc(C(F)(F)F)c2c1=O [Example 4a, (R)-2-(2-Hydroxy-phenyl)-3-(1-methyl-2-phenyl-ethyl)-5-trifluoromethyl-3H-pyrido[4,3-d]pyrimidin-4-one]
